How the values were obtained:
Format in all cases: cell-based
[1] = tested on: marine diatom Phaeodactylum tricornutum; assay: Cell cycle analysis (propidium iodide DNA stain, flow cytometry); conditions: higher dose of inhibitor
Method: (§1) Cultures were grown in continuous light at approximately 70 μmol quanta m^−2s^−1, in nutrient-replete conditions (F/2 media). […] The CDK inhibitor was applied when cells were growing exponentially (cell concentration was between 250,000-700,000 cells/ml).

[2] = tested on: marine diatom Phaeodactylum tricornutum; assay: Fatty acid content / synthesis per cell
Method: as §1

[3] = tested on: marine diatom Phaeodactylum tricornutum; assay: Photosynthetic health (Fv/Fm, chlorophyll per cell, a*); conditions: treated vs untreated cells
Method: as §1

[4] = tested on: marine diatom Phaeodactylum tricornutum; assay: Protein synthesis in treated cells; conditions: treated vs untreated cells
Method: as §1

Structure (SMILES): Nc1nc(OCC2CCCCC2)c2nc[nH]c2n1 [NU 2058, 6-(Cyclohexylmethoxy)-9H-purin-2-amine]
- percentage of cells arrested in G1 [1]: higher percentage of cells arrested in G1
- increase in fatty acid synthesis compared to untreated cells ([2]; 7 μM, over a period of one day): 80%
- fatty acid content per cell ([2]; higher dose of inhibitor): higher fatty acid content per cell
- photosynthetic capacity (Fv/Fm, chlorophyll per cell, a*) [3]: no appreciable differences
- protein synthesis, lower than in untreated cells [4]: about 18%

Reference: US20140303386A1, “COMPOSITIONS AND METHODS FOR ENHANCING LIPID PRODUCTION IN […] INDUCTION OF CELL CYCLE ARREST” (RUTGERS, THE STATE UNIVERSITY OF NEW JERSEY, priority 2011, published 2014)
